Experimental data taken from PubChem BioAssay (NCI).
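Method: 48-hour compound exposure of cells in 96-well plates, five concentrations, linear interpolation of endpoints. GI50 is the concentration that inhibits growth by half. TGI denotes the concentration required for complete inhibition of growth.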

Assays:
Test in all cases: growth of human tumour cells (NCI), 48 h
ACHN renal = tested on: ACHN renal
HL-60(TB) leukemia = tested on: HL-60(TB) leukemia
KM12 colon = tested on: KM12 colon
M14 melanoma = tested on: M14 melanoma
MCF7 breast = tested on: MCF7 breast
NCI-H23 lung = tested on: NCI-H23 lung
NCI/ADR-RES ovarian = tested on: NCI/ADR-RES ovarian
SF-539 CNS = tested on: SF-539 CNS
UACC-257 melanoma = tested on: UACC-257 melanoma
NCI-H226 lung = tested on: NCI-H226 lung

Structure (SMILES) | GI50 (ACHN renal) [µM] | TGI (ACHN renal) [µM] | GI50 (HL-60(TB) leukemia) [µM] | TGI (HL-60(TB) leukemia) [µM] | GI50 (KM12 colon) [µM] | TGI (KM12 colon) [µM] | GI50 (M14 melanoma) [µM] | TGI (M14 melanoma) [µM] | GI50 (MCF7 breast) [µM] | TGI (MCF7 breast) [µM] | GI50 (NCI-H23 lung) [µM] | TGI (NCI-H23 lung) [µM] | GI50 (NCI/ADR-RES ovarian) [µM] | TGI (NCI/ADR-RES ovarian) [µM] | GI50 (SF-539 CNS) [µM] | TGI (SF-539 CNS) [µM] | GI50 (UACC-257 melanoma) [µM] | TGI (UACC-257 melanoma) [µM] | TGI (NCI-H226 lung) [µM]
C=C1CC[C@@](C)(c2cc(Br)c(C)cc2OC(C)=O)[C@H]1C | 13.7 | 27.3 | 11.9 | 28.2 | 6.38 | 21.1 | 15.9 | 30.6 | 12.8 | 28 | 13.9 | 28.2 | 12.1 | 25 | 13.5 | 26.4 | 16.1 | 30.2 | 
O=C(CC(=O)N1N=C(n2ccc3ccccc32)CC1c1ccccc1)Nc1ccccc1Cl (centres undefined) |  | > 100 |  | > 100 |  | > 100 |  | > 100 |  |  |  | > 100 |  |  |  | > 100 |  | > 100 | 
CC1CN1c1c(C(=O)/C=C/c2ccc(F)cc2)c(-c2ccccc2)nn(C)c1=O (centres undefined) |  | 36.3 |  | 43 |  | 29.4 |  | 30.5 |  |  |  | 27.1 |  |  |  |  |  | 27.4 | 25.3
N#CC(Cl)CS(=O)(=O)c1ccccc1 (centres undefined) |  | 9.96 |  | > 100 |  | 33.3 |  | 9.59 |  | 32.8 |  | 33.5 |  |  |  | 28.5 |  | 14 | 46.7
CCP(C)(=O)CC |  | > 100 |  | > 100 |  | > 100 |  | > 100 |  |  |  | > 100 |  |  |  | > 100 |  | > 100 | > 100
COC(=O)C1=C(C)N(NC(N)=O)C2(N)N(NC(N)=O)C(C)=C(C(=O)OC)C12C#N (centres undefined) |  | > 100 |  | > 100 |  | > 100 |  | > 100 |  |  |  | > 100 |  |  |  | > 100 |  | > 100 | > 100
CC(C)(C)c1cc(Cc2ccc(S(C)(=O)=O)cc2)c(O)c(C(C)(C)C)c1 |  | 26.6 |  | 42 |  | 30.4 |  | 28.9 |  |  |  | 31.3 |  |  |  | 30.7 |  | 31 | 
CC(=O)[CH-]C(=O)c1ccccc1.CC(=O)[CH-]C(=O)c1ccccc1.CC[C@H](CCC(C)[C@H]1CCC2[C@@H]3CC=C4C[C@@H]([O-])CC[C@]4(C)C3CC[C@@]21C)C(C)C.CC[C@H](CCC(C)[C@H]1CCC2[C@@H]3CC=C4C[C@@H]([O-])CC[C@]4(C)C3CC[C@@]21C)C(C)C.Cl.[Ti+4] (some centres undefined) |  | > 25 |  | > 25 |  | > 25 |  | > 25 |  |  |  | > 25 |  |  |  | > 25 |  | > 25 | > 25
c1ccc(-c2sc(-c3ccccc3)c3c2C(c2ccccc2)c2c(-c4ccccc4)sc(-c4ccccc4)c2C3c2ccccc2)cc1 (centres undefined) |  | > 100 |  | > 100 |  | > 100 |  | > 100 |  |  |  | > 100 |  |  |  | > 100 |  | > 100 | > 100
COc1ccc(/C=C/C(=O)C(=O)/C=C/c2ccc(OC)c(OC)c2)cc1OC | 2.05 | 5.4 | 2.36 | 16.9 | 1.6 | 3.67 | 1.69 | 4.4 | 0.516 | 9.48 | 2.99 | > 100 | 4.2 | > 100 | 2.13 | 5.16 |  |  | 
Cc1cc(C)c([O-])c(-[n+]2c(-c3ccccc3)cc(-c3ccccc3)cc2-c2ccccc2)c1 |  | 16.6 |  | 4.16 |  | 13.1 |  | 18.3 |  |  |  | 13.7 |  |  |  | 26.9 |  | 10.1 | 24.9
